Read-outs that look alike come from different tables or passages of the source.

The nature of data set [1]: PK rat. In kind it is in vivo. The settings on record: for CLu rat: unbound clearance; for clearance: read-out: CLp rat (converted); for Vd: read-out: Vss rat. The essentials:
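Male Sprague–Dawley rats, 6–8 weeks, dosed 0.1 mg/kg iv bolus (PEG200/water 60/40) or 5 mg/kg oral gavage (0.5% MC suspension, fasted ≥12 h until 3 h post-dose); n = 3 per route. Plasma sampled up to 24 h, assayed by LC-MS/MS; noncompartmental PK parameters.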

The nature of data set [2]: PK dog. Type of data set: in vivo. The settings on record: for CLu dog: unbound clearance; for clearance: read-out: CLp dog (converted); for Vd: read-out: Vss dog. The method, then:
These studies were performed with non-naïve male Beagle dogs (age 13.8 months old, origin: Marshall US, North Rose, NY 14516, USA; age 15.8 months old, origin: Harlan; age 17.7 months old, origin: Harlan). Dogs (n = 3) were dosed iv via a 10 min infusion via a catheter with a dose level of 1 mg/kg. After a washout of 3 days, they were dosed orally as a single gavage with a dose level of 5 or 1 mg/kg in PEG400/MC 0.5% or MC 0.5%. Before administration by the po route, animals were fasted for a period of at least 12 h before treatment, and food was given just after the 3 h of blood sampling. All animals had free access to tap water. Blood samples were taken without an anesthetic from a jugular or cephalic vein into tubes containing lithium heparin as an anticoagulant. Blood samples were taken up to 24 h after the start of the infusion. After centrifugation, the resulting plasma samples were assayed by LC-MS/MS with a nongood laboratory practice (non-GLP)-validated method. PK parameters were calculated by noncompartmental analysis using WinNonlin software (Certara, Princeton, NJ, USA).

The nature of data set [3]: Plasma protein binding, dog. The settings on record: for fraction unbound at 4 h, 5 μM: dog, pH 7.4, dog plasma, read-out: PPB % dog (converted). Type of data set: in vitro ADME. On the procedure:
Plasma protein binding was determined by equilibrium dialysis using the Pierce Red Device plate with inserts (ThermoScientific). Test compound at 5 μM (0.5% DMSO) spiked in freshly thawed human, rat, mouse, or dog plasma (Bioreclamation INC, Westbury, NY, USA) was dialyzed against phosphate-buffered saline (PBS, pH 7.4) at 37 °C under shaking for 4 h. Aliquots were taken from each side of the well, and matrix matched. Proteins were precipitated with an excess of acetonitrile, samples were mixed and centrifuged, and the supernatant was analyzed by liquid chromatography–mass spectrometry/mass spectrometry (LC–MS/MS). Addition of compound peak areas in the buffer chamber and the plasma chamber was considered to be 100% compound.

Data set [4] in a line: Hepatocyte stability, dog. The settings on record: for CLint scaled at 1 μM: read-out: Hep CLint,u dog (converted). Type of data set: in vitro ADME. The method, then:
(§1) The hepatocyte stability assay was performed by incubation of test compound at 1 μM, 0.03% DMSO in modified Krebs–Henseleit buffer with suspension of pooled cryopreserved hepatocytes (BioIVT, Hicksville, NY, USA) from mouse, rat, dog, or human (BioIVT, Hicksville, NY, USA) at 0.5 million viable hepatocytes/mL. Before adding the hepatocytes (time zero) and after 10, 20, 45, 90, 120, and 180 min of incubation (n = 2) at 37 °C while gently shaking, the reaction was stopped and proteins were precipitated with an excess of acetonitrile containing an internal standard. The samples were mixed, centrifuged, and filtered, and the supernatant was analyzed by liquid chromatography–mass spectrometry/mass spectrometry (LC–MS/MS). The instrument responses (peak areas/IS peak areas) were referenced to the zero-time point samples (considered as 100%) in order to determine the percentage of compound remaining.

Data set [5] is described as follows: Hepatocyte stability, monkey. Particulars: monkey hepatocytes. In kind it is in vitro ADME. On the procedure:
as §1

Data set [6] is described as follows: Liver microsomal stability, rat. In kind it is in vitro ADME. The settings on record: rat; matrix not given; read-out: Clintr,unbound rat (converted). On the procedure: (§2) The microsomal stability assay was performed by incubation of test compound at 1 μM, 0.2% DMSO in phosphate buffer with microsomes (0.5 mg/mL) from mouse, rat, dog, or human (Xeno-Tech, Kansas City, KS, USA), and cofactors with final concentrations of 0.6 U/mL glucose-6- phosphate dehydrogenase, 3.3 mM MgCl2, 3.3 mM glucose-6-phosphate, and 1.3 mM nicotinamide adenine dinucleotide phosphate (NADP)+. Before addition of the microsomes (time zero) and after 30 min of incubation at 37 °C with shaking, the reaction was stopped, and proteins were precipitated with an excess of acetonitrile containing an internal standard. The samples were mixed, centrifuged, and filtered, and the supernatant was analyzed by liquid chromatography–mass spectrometry/mass spectrometry (LC–MS/MS). The instrument responses (peak areas/IS peak areas) were referenced to the zero-time point samples (considered as 100%) to determine the percentage of compound remaining. In vitro unbound intrinsic clearance (CLint,u) was calculated from the half-life using the following equations: [drawing 1] [drawing 2] To take into account nonspecific binding, scaled CLint values were corrected with the fraction unbound in microsomes (fu, mic). [drawing 3]
Equilibrium dialysis is a technique used to measure microsomal binding. Briefly, the assay was performed in a 96-well Teflon dialysis unit (Dialysis Device), where each well consists of two chambers separated by a dialysis membrane (membrane strips, MW cutoff 12–14 kDa, HTDialysis). Inactivated liver microsomes (pooled human liver microsomes, Xenotech, protein concentration of 0.5 mg/mL) spiked with a compound (1 μM final concentration, 0.5% DMSO) were added to one chamber and buffer solution (50 mM PBS Buffer) was added to the other side of the well. Each compound was analyzed in duplicate for 4 h at 37 °C. At the end of incubation, both chambers were sampled and analyzed by LC-MS/MS. The unbound microsomal fraction (fu, mic) was calculated as the concentration in buffer divided by the total concentration in the microsomal side. Positive controls included in this assay are terfenadine and verapamil.
A general note: Microsomes from liver hold many membrane-bound enzymes, among them those of drug oxidation.

The nature of data set [7]: PK mouse. In kind it is in vivo.
A short description of data set [8]: Liver microsomal stability, dog. Particulars: matrix not given, read-out: Clintr,unbound dog. Type of data set: in vitro ADME. The method, then: as §2, with “The instrument responses (peak areas/IS peak areas) were referenced to the zero-time point samples (considered as 100%) to determine the percentage of compound remaining.” left out, “[drawing 2] To take into account nonspecific binding, scaled CLint values were corrected with the fraction unbound in microsomes (fu, mic). [drawing 3]” left out
(§3) Equilibrium dialysis is a technique used to measure microsomal binding. […] Each compound was analyzed in duplicate for 4 h at 37 °C. At the end of incubation, both chambers were sampled and analyzed by LC-MS/MS. The unbound microsomal fraction (fu, mic) was calculated as the concentration in buffer divided by the total concentration in the microsomal side. […]

Data set [9] in a line: Liver microsomal stability, monkey. Type of data set: in vitro ADME. Particulars: matrix not given, read-out: Clintr,unbound monkey (converted). The method, then: as §2, with “The instrument responses (peak areas/IS peak areas) were referenced to the zero-time point samples (considered as 100%) to determine the percentage of compound remaining.” left out, “[drawing 2] To take into account nonspecific binding, scaled CLint values were corrected with the fraction unbound in microsomes (fu, mic). [drawing 3]” left out
as §3

The mark [10] stands for this setting: male, Sprague-Dawley, plasma, 0.1 mg/kg, iv.
Setting [11] is: male, Sprague-Dawley, plasma, 0.1 mg/kg, iv, read-out: t1/2 iv rat (converted).
[12] abbreviates: male, Sprague-Dawley, plasma, iv, 0.1 mg/kg, iv.
The mark [13] stands for this setting: male, beagle, plasma, 1 mg/kg, iv.

`CN(C)S(=O)(=O)NC(=O)c1cc(N2CCC(N3CCOCC3)CC2)c2c(C3CCC3)nn(-c3ccc(F)cc3)c2n1` [Compound 51]: the CLu rat in data set [1] (iv) was determined as 220 mL/min/kg. Besides, the clearance was 3.17 mL/min/kg in [1] (setting [10]) and 2.67 mL/min/kg in data set [2] (setting [13]). In addition, the half-life at 24 h was 3.6 h in [1] (setting [11]) and 4.9 h in data set [2] (male, beagle, plasma, 0.1 mg/kg, iv, read-out: t1/2 iv dog (converted)). Also, the Vd in [1] (setting [12]) was 0.81 L/kg; in [2] (setting [13]), 0.9 L/kg. The same molecule came in with a CLu dog in [2] (iv) of 202 mL/min/kg. In addition, the PPB % dog in data set [3] (dog plasma) is 98,7%. Also, the fraction unbound at 4 h, 5 μM in data set [3] (plasma) was 0.01. Moreover, the CLint scaled at 1 μM in data set [4] (pooled cryopreserved hepatocytes in suspension, dog hepatocytes) was 31.7 mL/min/kg.
Take `COC1CCN(C2CCN(c3cc(C(=O)NS(=O)(=O)N(C)C)nc4c3c(C3CCC3)nn4-c3ccc(F)cc3)CC2)CC1` [Compound 52, 3-Cyclobutyl-N-(N,N-dimethylsulfamoyl)-1-(4-fluorophenyl)-4-(4-methoxy-[1,4′-bipiperidin]-1′-yl)-1H-pyrazolo[3,4-b]pyridine-6-carboxamide]: the “F (%) rat” value in data set [1] (30 mg/kg po) turned out to be 69.1%. Besides, the exposure versus dose entry in [1] (dose of 5 to 300 mg/kg) is “dose proportional increase in exposure”. The CLu rat in data set [1] (iv) is 333 mL/min/kg. In addition, the clearance in [1] (setting [10]) was 5.33 mL/min/kg; in data set [2] (setting [13]), 3.5 mL/min/kg; in data set [7] (plasma, iv, 1 mg/kg, 1 mg/kg iv, read-out: Clp mouse (converted)) it was 4.67 mL/min/kg. For the same molecule, the half-life in data set [1] (setting [11]) was 3.45 h; in data set [2] (male, beagle, plasma, 1 mg/kg, iv, read-out: t1/2 iv dog (converted)), 5.4 h; in data set [7] (plasma, 1 mg/kg iv, read-out: t1/2 iv mouse (converted)), 3.22 h. Moreover, the Vd in [1] (setting [12]) is 1.38 L/kg; in [2] (setting [13]), 1.37 L/kg; in [7] (plasma, 1 mg/kg iv, read-out: Vss mouse) it was 1.27 L/kg. Moreover, in data set [5], the “Hepatocyte stability: %LBF monkey” value was determined as 65 %LBF. The “Hepatocyte stability: predicted hepCl monkey” value in [5] (1 µM) was 28.8 mL/min/kg. Moreover, the “F (%) dog” value in data set [2] (5 mg/kg po) amounted to 59.5%. Moreover, in data set [2] (iv), the CLu dog was 178 mL/min/kg. Besides, the CLint scaled at 1 μM in data set [6] is 82.3 mL/min/kg; in data set [8] it was under 32 mL/min/kg; in data set [9] it was 347 mL/min/kg; in data set [4] (dog, pooled cryopreserved dog hepatocytes in suspension) it was under 24.8 mL/min/kg. Further, the fraction unbound at 4 h, 5 μM in data set [3] (dog plasma) was 0.025. In addition, the “F (%) mouse” value in data set [7] (5 mg/kg po) amounted to 71.3%. In addition, the Unbound clearance in data set [7] (plasma, iv, 1 mg/kg, 1 mg/kg iv, unbound clearance, read-out: Cl.u mouse (converted)) is 1110 mL/min/kg. In addition, in data set [4] (dog hepatocytes), the “Hepatocyte stability: %LBF dog” value is given as 14 %LBF. In addition, the “Hepatocyte stability: predicted hepCl dog” value in [4] (dog hepatocytes, 1 µM) was under 5.83 mL/min/kg.

The values are drawn from PMC11017246, “Discovery of GLPG2737, a Potent Type 2 Corrector of CFTR for the Treatment of Cystic Fibrosis in Combination with a Potentiator and a Type 1 Co-corrector” (Journal of Medicinal Chemistry, 2024).
